This passage reports Activity results from ChEMBL document CHEMBL3108718, “Replacement of the Disulfide Bridge in a KLK3-Stimulating Peptide Using Orthogonally Protected Building Blocks” (ACS Med Chem Lett, 2014).

Bridge positions count the residues as written; N and C are the ends. Square brackets hold non-standard residues; d marks the D form. Peptide text beside a SMILES is read from it. Asu = N[C@@H](CCCCCC(=O)O)C(=O)O; AllylGly = C=CC[C@H](N)C(=O)O; GABA = NCCCC(=O)O

The first test deals with T1, Prostate-specific antigen (Homo sapiens) (UniProt P07288).
T1 sequence (whole entry): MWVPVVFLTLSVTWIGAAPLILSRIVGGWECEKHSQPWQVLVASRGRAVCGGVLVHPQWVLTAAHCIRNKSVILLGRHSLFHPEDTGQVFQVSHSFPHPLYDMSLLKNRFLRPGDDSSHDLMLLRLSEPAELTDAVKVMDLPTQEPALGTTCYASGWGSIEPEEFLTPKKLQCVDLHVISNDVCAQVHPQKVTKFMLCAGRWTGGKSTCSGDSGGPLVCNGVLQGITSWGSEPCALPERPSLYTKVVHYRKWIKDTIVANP
The test can be described thus: Stimulation of KLK3 (unknown origin) relative to control.
With `CC(C)C[C@@H]1NC(=O)[C@H](Cc2ccc(O)cc2)NC(=O)[C@H](CC(=O)O)NC(=O)[C@H](Cc2ccc(O)cc2)NC(=O)[C@H](CC(N)=O)NC(=O)[C@H](Cc2cnc[nH]2)NC(=O)[C@H](C)NC(=O)[C@H](Cc2ccccc2)NC(=O)[C@H](C(C)C)NC(=O)CCCNC(=O)[C@H](CC(=O)O)NC(=O)[C@H](C(C)C)NC1=O` (cyclo(AHNYDYLVD[GABA]VF)), the Activity stood at 250%.

A further test has as its target T1, Prostate-specific antigen (Homo sapiens). The test can be described thus: Stimulation of KLK3 (unknown origin) using S-2586 as substrate at 14 uM after 30 mins by spectrophotometric assay relative to control.
As to `CC(C)C[C@@H]1NC(=O)[C@H](Cc2ccc(O)cc2)NC(=O)[C@H](CC(=O)O)NC(=O)[C@H](Cc2ccc(O)cc2)NC(=O)[C@H](CC(N)=O)NC(=O)[C@H](Cc2cnc[nH]2)NC(=O)[C@H](C)NC(=O)[C@H](Cc2ccccc2)NC(=O)[C@H](C(C)C)NC(=O)CC/C=C/C[C@@H](C(=O)O)NC(=O)[C@H](C(C)C)NC1=O`, the Activity was 160%.
Still for that read-out and setting: the same measure for `CC(C)C[C@@H]1NC(=O)[C@H](Cc2ccc(O)cc2)NC(=O)[C@H](CC(=O)O)NC(=O)[C@H](Cc2ccc(O)cc2)NC(=O)[C@H](CC(N)=O)NC(=O)[C@H](Cc2cnc[nH]2)NC(=O)[C@H](C)NC(=O)[C@H](Cc2ccccc2)NC(=O)[C@H](C(C)C)NC(=O)CCCCC[C@@H](C(=O)O)NC(=O)[C@H](C(C)C)NC1=O` (VFAHNYDYLV[Asu]-OH; lactam N-11): 170%.
Same read-out and setting: the figure for `CC(C)C[C@@H]1NC(=O)[C@H](Cc2ccc(O)cc2)NC(=O)[C@H](CC(=O)O)NC(=O)[C@H](Cc2ccc(O)cc2)NC(=O)[C@H](CC(N)=O)NC(=O)[C@H](Cc2cnc[nH]2)NC(=O)[C@H](C)NC(=O)[C@H](Cc2ccccc2)NC(=O)[C@H](C(C)C)NC(=O)[C@@H](N)CCCC[C@@H](C(=O)O)NC(=O)[C@H](C(C)C)NC1=O` is 250%; for `CC(C)C[C@@H]1NC(=O)[C@H](Cc2ccc(O)cc2)NC(=O)[C@H](CC(=O)O)NC(=O)[C@H](Cc2ccc(O)cc2)NC(=O)[C@H](CC(N)=O)NC(=O)[C@H](Cc2cnc[nH]2)NC(=O)[C@H](C)NC(=O)[C@H](Cc2ccccc2)NC(=O)[C@H](C(C)C)NC(=O)[C@@H](N)CSSC[C@@H](C(N)=O)NC(=O)[C@H](C(C)C)NC1=O` (H-CVFAHNYDYLVC-NH2; disulfide 1-12) it is 360%; for `CC(C)C[C@@H]1NC(=O)[C@H](Cc2ccc(O)cc2)NC(=O)[C@H](CC(=O)O)NC(=O)[C@H](Cc2ccc(O)cc2)NC(=O)[C@H](CC(N)=O)NC(=O)[C@H](Cc2cnc[nH]2)NC(=O)[C@H](C)NC(=O)[C@H](Cc2ccccc2)NC(=O)[C@H](C(C)C)NC(=O)[C@@H](N)C/C=C/C[C@@H](C(=O)O)NC(=O)[C@H](C(C)C)NC1=O` (H-[AllylGly]VFAHNYDYLV[AllylGly]-OH; staple (E) 1-12) it is 160%.
